Among the data in patent publication US11229623B2 (GlaxoSmithKline Intellectual Property (No.2) Limited, priority 2016, dated 2022) are IC50 values, retold here.

T1 sequence (Q9HBA0 whole entry): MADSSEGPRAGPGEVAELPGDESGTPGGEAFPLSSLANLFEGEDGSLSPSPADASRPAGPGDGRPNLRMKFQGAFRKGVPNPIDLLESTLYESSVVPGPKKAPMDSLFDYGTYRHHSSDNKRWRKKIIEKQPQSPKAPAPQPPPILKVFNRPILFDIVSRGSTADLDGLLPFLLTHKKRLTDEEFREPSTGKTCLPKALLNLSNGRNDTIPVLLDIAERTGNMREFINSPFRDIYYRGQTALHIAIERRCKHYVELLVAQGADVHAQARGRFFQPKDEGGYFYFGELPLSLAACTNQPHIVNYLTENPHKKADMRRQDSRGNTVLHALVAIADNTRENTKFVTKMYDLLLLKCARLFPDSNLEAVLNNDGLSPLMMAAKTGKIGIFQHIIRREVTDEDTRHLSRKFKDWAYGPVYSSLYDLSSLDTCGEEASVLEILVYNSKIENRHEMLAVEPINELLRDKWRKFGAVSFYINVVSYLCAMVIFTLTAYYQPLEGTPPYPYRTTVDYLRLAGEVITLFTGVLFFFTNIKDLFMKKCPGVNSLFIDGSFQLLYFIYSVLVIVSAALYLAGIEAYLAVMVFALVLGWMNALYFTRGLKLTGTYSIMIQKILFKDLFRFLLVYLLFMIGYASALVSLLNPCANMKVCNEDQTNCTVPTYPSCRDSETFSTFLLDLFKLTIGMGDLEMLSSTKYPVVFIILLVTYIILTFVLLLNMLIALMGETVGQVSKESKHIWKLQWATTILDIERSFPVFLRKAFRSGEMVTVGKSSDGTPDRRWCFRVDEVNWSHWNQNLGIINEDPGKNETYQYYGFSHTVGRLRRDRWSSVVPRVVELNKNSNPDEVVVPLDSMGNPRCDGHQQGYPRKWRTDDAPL

This experiment concerns the target T1, human TRPV4 (Homo sapiens, UniProt Q9HBA0).
T1 construct: expressed in transfected cells; host or cells: BHK/AC9 cells transduced with BacMam virus
Kind of experiment: FLIPR assay for hTRPV4 expressed in BHK cells: inhibition of Agonist Compound-induced calcium signal. As to conditions: hTRPV4 in BHK/AC9 cells, FLIPR calcium signal, agonist at EC80; reported as range class; read-out: IC50. The format is cell-based. Summed up: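 BHK/AC9 cells transduced with BacMam human TRPV4 (MOI 78), plated 15,000 per well and cultured 24 h at 37° C. Loaded with 2 μM Fluo-4 AM plus 500 μM Brilliant Black in HBSS for 1-1.5 h at room temperature in the dark; intracellular calcium signal read by FLIPR fluorescence.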
As usually defined, the IC50 is the concentration that gives 50% inhibition. For the molecule `N#Cc1cc(Cl)ccc1S(=O)(=O)N1C[C@H](Oc2ccc(Cl)cc2)[C@@](O)(CO)C1` [Example 151, 5-chloro-2-(((3S,4S)-4-(4-chlorophenoxy)-3-hydroxy-3-(hydroxymethyl)pyrrolidin-1-yl)sulfonyl)benzonitrile], the IC50 fell in the range of 0.1 to 10 nM.

Consider `N#Cc1cc(C(F)(F)F)ccc1S(=O)(=O)N1C[C@H](Oc2ccc(C(F)(F)F)c(F)c2)[C@](O)(CO)C1` [Example 31, 2-(((3R,4S)-4-(3-fluoro-4-(trifluoromethyl)phenoxy)-3-hydroxy-3-(hydroxymethyl)pyrrolidin-1-yl)sulfonyl)-5-(trifluoromethyl)benzonitrile], for which the IC50 fell in the range of 0.1 to 10 nM.

With `Cc1nc(C(F)(F)F)c(S(=O)(=O)N2C[C@H](Oc3ccc(C#N)c(F)c3)[C@](O)(CO)C2)s1` [Example 87, 2-fluoro-4-(((3S,4R)-4-hydroxy-4-(hydroxymethyl)-1-((2-methyl-4-(trifluoromethyl)thiazol-5-yl)sulfonyl)pyrrolidin-3-yl)oxy)benzonitrile], the IC50 was 10 to 100 nM.

Consider `Cc1cc(C(F)(F)F)ccc1S(=O)(=O)N1C[C@H](Oc2ccc(C#N)c(F)c2)[C@](O)(CO)C1` [Example 81, 2-fluoro-4-(((3S,4R)-4-hydroxy-4-(hydroxymethyl)-1-((2-methyl-4-(trifluoromethyl)phenyl)sulfonyl)pyrrolidin-3-yl)oxy)benzonitrile], for which the half-inhibitory concentration (IC50) was in the range of 10 to 100 nM.

Take `N#Cc1ccc(O[C@H]2CN(S(=O)(=O)c3ccc(Br)cn3)C[C@@]2(O)CO)cc1F` [Example 105, 4-(((3S,4R)-1-((5-bromopyridin-2-yl)sulfonyl)-4-hydroxy-4-(hydroxymethyl)pyrrolidin-3-yl)oxy)-2-fluorobenzonitrile]: the IC50 fell in the range of 10 to 100 nM.

Consider `N#Cc1ccc2cc(O[C@H]3CN(S(=O)(=O)c4ccc(C(F)(F)F)cc4C#N)C[C@@]3(O)CO)ccc2c1` [Example 18, 6-(((3S,4R)-1-((2-cyano-4-(trifluoromethyl)phenyl)sulfonyl)-4-hydroxy-4-(hydroxymethyl)pyrrolidin-3-yl)oxy)-2-naphthonitrile], for which the IC50 fell in the range of 10 to 100 nM.
